Measured values published in patent publication US7018796B2, “Preincubation assay methods” (Shionogi & Co., Ltd., priority 2000, dated 2006).
“Also recorded” adds a separate entry of the source.

Columns and labels:
[1] = target: T1, HCV RNA-dependent RNA polymerase (Hepatitis C virus genotype 1a, UniProt P27958); test: Prior assay method without pre-incubation, 3H-UTP (Reference 1); assay type: biochemical; conditions: no pre-incubation
T1 construct: HCV RNA-dependent RNA polymerase is encoded in the NS5B (nonstructural protein 5B) region of HCV; made in house; host or cells: insect cells or E. coli
Text: A HCV RNA-dependent RNA polymerase, template RNA, primer RNA, substrate RNA, Mg ion (Mg^2+) and a test substance are mixed at the same time to start an enzyme reaction and measure an enzyme activity. It can be known whether a test substance activates or inhibits an activity of a HCV RNA-dependent RNA polymerase by comparing the above value of an enzyme activity with that measured in the absence of a test substance. IC50 value can be used, which is a concentration of a test substance able to inhibit 50% of an enzyme activity. For example, one of prior methods can be carried out in accordance with the later described Reference 1.
A cDNA encoding HCV RNA-dependent RNA polymerase was made by use of HCV positive human plasma and HCV RNA-dependent RNA polymerase was expressed using the insect cells or the E. coli. HCV RNA-dependent RNA polymerase in the cell extract was purified by use of an anion exchange chromatography, a heparin affinity chromatography, a polyU affinity chromatography, a cation exchange chromatography and gel filtration chromatography. The purification was performed at 4° C. and Tris buffer (pH 7.5) containing ethylenediaminetetraacetic acid (1 mM), dithiothreitol (10 mM) and glycerol (20%) was used. The enzyme purified was stored at 4° C. until use for the assays.
The prior assay method using HCV RNA-dependent RNA polymerase • 1) The buffer I ^1) (10.5 μl) containing Tris-HCl (100 mM, pH 7.5), MgCl2 (25 mM), dithiothreitol (5 mM), KCl (125 mM) and ethylenediaminetetraacetic acid (5 mM) was transferred to a polypropylene tube and then poly(A)^2) solution (100 μg/ml, 10.5 μl), oligo(U)12 ^3) solution (1 μg/ml, 10.5 μl) and water (8 μl) were added into the tube. After mixing, the tube was cooled on ice. • 2) Next, HCV RNA-dependent RNA polymerase (10.5 μl) cooled on ice was added into the tube and mixed. • 3) The mixture cooled (50 μl) was added to a test compound (5.26 μl/well) dissolved with dimethyl sulfoxide or water in a well of a 96-wells microtiter plate. • 4) Additionally, the buffer II (10.6 μl) containing Tris-HCl (100 mM, pH 7.5), MgCl2 (25 mM), dithiothreitol (5 mM), KCl (125 mM), ethylenediaminetetraacetic acid (5 mM) and UTP ^4) (2.1 μM, 1 μCi ^3H-UTP), was mixed with water (39.4 μl). The mixture (50 μl) was added into the well and mix, and then the enzyme reaction was performed at 25° C. for 30 min. • 5) After enzyme reaction for 30 min, the enzyme reaction was stopped by adding disodium ethylenediaminetetraacetic acid (50 mM, 50 μl). • 6) By use of the cell-harvester, all volume of the enzyme reaction sample which was described in 5) was transferred onto a DEAE-filtermat and washed twice for 10 see with sodium phosphate buffer (0.25 M, pH 7.0) and once for 10 sec with de-ionized water. • 7) The DEAE-filtermat was dried at 95° C. for 15 min and transferred into a sample bag with liquid scintillater (10 ml), and then a sample bag was sealed. • 8) The radio activity was measured by a scintillation counter. • 9) The inhibitory rate was calculated from the radioactivity measured (ccpm) as follows. [formula]

[2] = target: T1, HCV RNA-dependent RNA polymerase; test: DIG-UTP assay without radioisotope-labeled substrate, without pre-incubation (Example 2); assay type: biochemical; conditions: no pre-incubation, I-1 0.5 μg/ml, 3′-dUTP 0.7 μM, A 100 μg/ml, B 50 μg/ml, C 25 μg/ml
Procedure: After mixing by a plate mixer, the solution was pre-incubated at 25° C. for 1 hr. • 10) On the other hand, the buffer I (10 μl) was transferred into another tube, and UTP (1 μM, 10 μl), DIG-UTP (300 μM, 1 μl), water (24 μl) and a test compound dissolved with dimethyl sulfoxide or water (5 μl) were added to the tube and mixed calmly. Concentrations of the compounds used were as follows.
• 11) The mixed solution (50 μl/well) described in 10) was transferred into each well after the pre-incubation described in 9), mixed by a plate mixer and then incubated at 25° C. for 1 hr. • 12) When the enzyme reaction was in 1 hr, the enzyme reaction was stopped by adding ethylenediaminetetraacetic acid (0.1 M, 50 μl/well). • 13) The plate was washed twice with PBS (200 μl/well) after end of the enzyme reaction. • 14) Next, alkaline phosphatase-labeled anti-DIG antibody (3 U/ml, 100 μl/well) diluted 250-fold with PBS containing skim milk (0.5%) was transferred each well. After mixing by a plate mixer, immuno-reaction was performed at 25° C. for 1 hr. • 15) Each well was washed twice with PBS (200 μl/well) containing skim milk (0.05%) and then washed twice with PBS (200 μl/well). • 16) Substrate solution (150 μl/well) for alkaline phosphatase was prepared by mixing of Tris-HCl (100 mM, pH 9.5), NaCl (100 mM), MgCl2 (5 mM) and p-nitrophenyl phosphate (6 mM) just before use. The substrate solution was transferred into each well of the plate, mixed by a plate mixer and then incubated at 25° C. for 1 hr until the color appears in the solution. • 17) The plate was set on a plate reader and the absorbance was measured at 405 nm. • 18) The inhibitory rate was calculated from the optical density (unit; OD) measured as follows. [formula]
Table 4 summarized the comparison between inhibitory rates in the assay with the pre-incubation and those in the assay without the pre-incubation.

[3] = prior method, I-1 0.5 μg/ml, 3′-dUTP 0.7 μM, A 100 μg/ml, B 50 μg/ml, C 25 μg/ml

T1 sequence (P27958 2421-3011): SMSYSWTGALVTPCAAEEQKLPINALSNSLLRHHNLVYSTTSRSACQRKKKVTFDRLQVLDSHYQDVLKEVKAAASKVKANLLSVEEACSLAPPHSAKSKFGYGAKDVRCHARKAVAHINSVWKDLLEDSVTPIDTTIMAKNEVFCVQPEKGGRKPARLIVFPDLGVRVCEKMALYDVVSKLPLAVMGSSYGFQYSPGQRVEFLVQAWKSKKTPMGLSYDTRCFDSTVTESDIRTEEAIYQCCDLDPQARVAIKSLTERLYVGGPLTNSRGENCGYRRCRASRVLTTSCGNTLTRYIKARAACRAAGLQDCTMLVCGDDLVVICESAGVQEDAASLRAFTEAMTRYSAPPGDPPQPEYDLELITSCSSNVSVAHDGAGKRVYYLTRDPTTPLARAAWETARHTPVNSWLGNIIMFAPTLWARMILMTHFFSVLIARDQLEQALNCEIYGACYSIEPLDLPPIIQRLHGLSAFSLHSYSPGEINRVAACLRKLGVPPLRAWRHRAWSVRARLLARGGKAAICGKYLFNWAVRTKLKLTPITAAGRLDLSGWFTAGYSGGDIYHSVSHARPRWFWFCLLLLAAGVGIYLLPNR

Row | SMILES | Inhibitory rate (Table 3) [1, 3] [%] | Inhibitory rate, treatment of pre-incubation − [2] [%] | Judgement in the prior method (positive / negative) [1] | inhibition at 0.5 µg/mL ([1]; prior method, I-1 0.5 μg/ml, 3′-dUTP 0.7 μM, A 100 μg/ml, B 50 μg/ml, C 25 μg/ml, read-out: Inhibitory rate (Table 3)) [%] | inhibition at 0.5 µg/mL ([2]; read-out: Inhibitory rate, treatment of pre-incubation −) [%]
1 | O=c1ccn([C@@H]2O[C@H](COP(=O)(O)OP(=O)(O)OP(=O)(O)O)C[C@H]2O)c(=O)[nH]1 [3′-dUTP, 3′-deoxyuridine triphosphate] | 68 | 44 |  |  | 
2 | Cc1oc(-c2ccccc2)nc1CCOc1ccc(C=C2C(=O)NC(=O)NC2=O)cc1 [Compound A] | 50 | 87 | positive data |  | 
3 | O=C1NC(=O)C(=Cc2ccc(OCCc3cccc4ccccc34)cc2)C(=O)N1 [Compound B] | 63 | 28 | positive data |  | 
4 | CCCCC1=N/C(=C\c2ccccc2OCC(=O)O)C(=O)N1Cc1ccc(-c2ccccc2-c2nnn[nH]2)cc1 [Compound C] | 67 | 87 | positive data; also recorded: positive result |  | 
5 | O=C(O)/C(O)=C/C(=O)c1cccc(O)c1 [Compound I-1] |  |  |  | 62 | 59
